# Assay results from ChEMBL document CHEMBL1201862, “PubChem BioAssay data set” (2004).
# Active and inactive are the calls of the source.
# How the values were obtained:
# [1] = system: SN12K1; assay: cells; type: functional; details: Homo sapiens
# [2] = system: P388; assay: cells; type: functional; details: Mus musculus
# [3] = system: P388/ADR; assay: cells; type: functional; details: Mus musculus
# [4] = biological target: T1, Long-chain-fatty-acid--AMP ligase FadD28 (Mycobacterium tuberculosis, UniProt P9WQ59); assay: Fluorescence polarization aasay to screen for inhibitors that compete for the binding of FadD28 to a bisubstrate Measured in Biochemical System Using Plate Reader - 2147-01_Inhibitor_Dose_CherryPick_Activity.; type: functional, Mycobacterium tuberculosis H37Rv
# T1 sequence (P9WQ59 whole entry): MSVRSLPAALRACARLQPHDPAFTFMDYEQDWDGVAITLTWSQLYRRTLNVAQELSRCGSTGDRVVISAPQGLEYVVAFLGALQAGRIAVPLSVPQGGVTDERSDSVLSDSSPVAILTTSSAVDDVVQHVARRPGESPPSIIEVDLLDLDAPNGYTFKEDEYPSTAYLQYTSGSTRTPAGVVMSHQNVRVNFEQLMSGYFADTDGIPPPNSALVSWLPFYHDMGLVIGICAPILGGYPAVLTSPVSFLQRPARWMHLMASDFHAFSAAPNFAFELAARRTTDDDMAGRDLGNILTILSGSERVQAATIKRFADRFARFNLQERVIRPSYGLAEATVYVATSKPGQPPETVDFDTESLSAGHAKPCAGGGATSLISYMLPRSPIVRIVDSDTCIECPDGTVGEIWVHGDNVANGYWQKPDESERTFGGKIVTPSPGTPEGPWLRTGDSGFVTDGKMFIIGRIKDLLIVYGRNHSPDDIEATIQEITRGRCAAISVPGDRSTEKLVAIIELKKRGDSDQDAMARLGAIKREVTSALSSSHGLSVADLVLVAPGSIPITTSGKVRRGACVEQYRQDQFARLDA
# [5] = biological target: T2, Aminopeptidase N (Plasmodium falciparum FcB1/Columbia, UniProt O96935); assay: P. falciparum M1AAP inhibitors, biochemical, fluorogenic H-Leu-NHMec substrate, 1536-well (AID 1445); set-up: species or system Plasmodium falciparum 3D7, 3D7
# T2 sequence (O96935 whole entry): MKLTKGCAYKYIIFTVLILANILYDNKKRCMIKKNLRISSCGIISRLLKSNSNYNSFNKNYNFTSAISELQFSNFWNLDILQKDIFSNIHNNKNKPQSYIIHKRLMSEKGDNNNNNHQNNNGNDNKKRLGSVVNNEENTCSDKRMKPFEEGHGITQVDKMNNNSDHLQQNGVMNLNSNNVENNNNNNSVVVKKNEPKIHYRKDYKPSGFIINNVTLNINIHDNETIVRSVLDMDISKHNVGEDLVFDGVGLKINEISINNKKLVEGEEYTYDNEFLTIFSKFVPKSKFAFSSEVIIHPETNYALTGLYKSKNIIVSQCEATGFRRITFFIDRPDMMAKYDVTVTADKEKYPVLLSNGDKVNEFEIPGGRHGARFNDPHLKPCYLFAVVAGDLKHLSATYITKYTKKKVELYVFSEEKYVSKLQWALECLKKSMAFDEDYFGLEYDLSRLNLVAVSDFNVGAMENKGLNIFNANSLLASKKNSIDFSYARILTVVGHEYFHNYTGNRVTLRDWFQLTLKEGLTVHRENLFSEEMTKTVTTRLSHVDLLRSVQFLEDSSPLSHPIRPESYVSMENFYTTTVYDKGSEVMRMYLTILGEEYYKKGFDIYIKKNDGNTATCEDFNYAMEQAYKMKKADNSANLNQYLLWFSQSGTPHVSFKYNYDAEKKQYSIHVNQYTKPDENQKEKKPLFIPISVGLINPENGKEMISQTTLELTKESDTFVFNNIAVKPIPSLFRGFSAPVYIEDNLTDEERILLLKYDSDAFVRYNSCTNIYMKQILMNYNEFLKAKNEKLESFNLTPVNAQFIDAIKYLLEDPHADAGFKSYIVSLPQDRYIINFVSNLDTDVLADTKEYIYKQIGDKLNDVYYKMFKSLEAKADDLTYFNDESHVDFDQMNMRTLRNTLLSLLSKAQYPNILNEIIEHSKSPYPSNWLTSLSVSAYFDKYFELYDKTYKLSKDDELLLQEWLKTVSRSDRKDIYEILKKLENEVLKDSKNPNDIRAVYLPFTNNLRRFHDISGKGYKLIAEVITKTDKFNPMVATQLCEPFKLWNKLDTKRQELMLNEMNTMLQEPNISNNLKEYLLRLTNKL
# [6] = biological target: FAD-linked sulfhydryl oxidase ALR (Homo sapiens, UniProt P55789); assay: inhibitors of human ALR sulfhydryl oxidase, dose response, biochemical, H2O2 detection, luminescence, cherry-pick (AID 493248)
# FAD-linked sulfhydryl oxidase ALR, sequence (P55789 whole entry, the tested form may be a part): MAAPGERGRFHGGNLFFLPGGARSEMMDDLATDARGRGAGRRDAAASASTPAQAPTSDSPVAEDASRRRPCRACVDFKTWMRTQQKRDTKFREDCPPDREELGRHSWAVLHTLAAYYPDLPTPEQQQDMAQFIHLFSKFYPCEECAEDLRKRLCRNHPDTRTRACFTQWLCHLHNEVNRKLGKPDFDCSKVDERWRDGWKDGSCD
# [7] = biological target: T3, Fatty acid synthase (Homo sapiens, UniProt P49327); assay: FAS thioesterase domain inhibitors, dose response, biochemical, endpoint fluorescence intensity, uHTS hits (AID 624327); type: functional;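 also: fluorescence from hydrolysis of an O-methyl fluorescein acyl ester substrate by the enzyme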
# T3 sequence (P49327 whole entry, the tested form may be a part): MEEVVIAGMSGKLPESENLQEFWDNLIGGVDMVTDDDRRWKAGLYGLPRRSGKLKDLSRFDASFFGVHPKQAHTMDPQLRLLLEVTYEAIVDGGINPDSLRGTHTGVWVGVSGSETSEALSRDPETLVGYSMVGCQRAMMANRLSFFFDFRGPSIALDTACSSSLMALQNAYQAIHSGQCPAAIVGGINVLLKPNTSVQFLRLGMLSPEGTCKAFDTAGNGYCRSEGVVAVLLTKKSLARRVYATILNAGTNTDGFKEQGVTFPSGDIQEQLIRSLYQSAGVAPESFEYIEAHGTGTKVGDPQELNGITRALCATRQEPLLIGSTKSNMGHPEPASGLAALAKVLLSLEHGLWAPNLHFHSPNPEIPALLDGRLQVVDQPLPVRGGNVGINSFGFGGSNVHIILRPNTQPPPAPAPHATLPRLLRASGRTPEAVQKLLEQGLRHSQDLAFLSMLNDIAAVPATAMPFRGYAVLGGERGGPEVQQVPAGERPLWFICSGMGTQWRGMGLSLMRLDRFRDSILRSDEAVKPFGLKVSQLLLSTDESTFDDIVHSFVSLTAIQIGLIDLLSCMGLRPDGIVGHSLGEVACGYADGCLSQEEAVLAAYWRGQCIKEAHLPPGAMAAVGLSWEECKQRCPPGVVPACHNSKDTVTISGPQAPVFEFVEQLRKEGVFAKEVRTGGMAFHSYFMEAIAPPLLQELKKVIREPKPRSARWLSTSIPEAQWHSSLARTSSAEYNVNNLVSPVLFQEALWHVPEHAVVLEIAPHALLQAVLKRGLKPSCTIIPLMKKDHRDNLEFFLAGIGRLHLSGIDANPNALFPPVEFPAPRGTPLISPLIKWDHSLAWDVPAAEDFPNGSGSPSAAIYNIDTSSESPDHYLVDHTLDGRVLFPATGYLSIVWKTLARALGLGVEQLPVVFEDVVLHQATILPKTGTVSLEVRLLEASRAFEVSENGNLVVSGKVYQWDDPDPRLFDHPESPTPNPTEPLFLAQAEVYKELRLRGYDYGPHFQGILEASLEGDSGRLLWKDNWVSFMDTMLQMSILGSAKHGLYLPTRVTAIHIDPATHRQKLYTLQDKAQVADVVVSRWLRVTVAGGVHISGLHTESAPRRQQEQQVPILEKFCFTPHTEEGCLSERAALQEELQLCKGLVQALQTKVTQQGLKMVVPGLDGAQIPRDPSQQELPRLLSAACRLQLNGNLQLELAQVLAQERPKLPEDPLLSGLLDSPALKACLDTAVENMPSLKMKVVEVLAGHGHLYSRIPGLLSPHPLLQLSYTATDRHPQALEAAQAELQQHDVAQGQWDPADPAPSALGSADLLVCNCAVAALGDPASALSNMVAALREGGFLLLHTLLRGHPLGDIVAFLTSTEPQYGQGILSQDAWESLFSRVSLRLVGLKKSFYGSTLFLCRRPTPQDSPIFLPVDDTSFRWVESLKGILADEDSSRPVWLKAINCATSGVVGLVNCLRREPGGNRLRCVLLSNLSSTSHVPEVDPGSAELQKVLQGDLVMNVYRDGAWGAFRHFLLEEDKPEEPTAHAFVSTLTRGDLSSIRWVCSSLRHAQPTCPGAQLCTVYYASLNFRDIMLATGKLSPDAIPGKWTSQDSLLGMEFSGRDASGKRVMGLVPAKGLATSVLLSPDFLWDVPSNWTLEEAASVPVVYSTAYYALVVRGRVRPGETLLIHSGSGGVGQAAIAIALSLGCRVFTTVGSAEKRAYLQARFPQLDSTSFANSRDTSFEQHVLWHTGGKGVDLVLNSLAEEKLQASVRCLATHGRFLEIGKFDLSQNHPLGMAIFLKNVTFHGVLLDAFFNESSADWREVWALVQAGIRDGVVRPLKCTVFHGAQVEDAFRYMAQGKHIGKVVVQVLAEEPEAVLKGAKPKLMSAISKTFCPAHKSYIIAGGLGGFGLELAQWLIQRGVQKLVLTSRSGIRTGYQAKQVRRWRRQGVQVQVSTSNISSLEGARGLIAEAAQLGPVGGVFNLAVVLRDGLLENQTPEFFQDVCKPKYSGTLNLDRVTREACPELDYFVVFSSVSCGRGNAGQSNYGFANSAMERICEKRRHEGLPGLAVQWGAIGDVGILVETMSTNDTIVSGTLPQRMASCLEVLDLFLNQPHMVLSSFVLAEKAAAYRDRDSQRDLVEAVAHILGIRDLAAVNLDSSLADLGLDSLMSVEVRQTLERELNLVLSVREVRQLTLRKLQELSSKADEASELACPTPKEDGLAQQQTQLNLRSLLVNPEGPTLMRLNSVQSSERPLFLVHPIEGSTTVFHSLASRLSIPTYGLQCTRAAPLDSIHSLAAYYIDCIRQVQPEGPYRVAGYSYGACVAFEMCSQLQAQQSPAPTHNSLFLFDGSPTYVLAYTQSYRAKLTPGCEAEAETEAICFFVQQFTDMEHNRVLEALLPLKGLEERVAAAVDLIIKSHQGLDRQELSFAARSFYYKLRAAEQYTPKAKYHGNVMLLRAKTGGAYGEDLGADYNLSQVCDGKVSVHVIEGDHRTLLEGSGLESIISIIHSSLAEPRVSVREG
# [8] = biological target: T3, Fatty acid synthase; assay: FAS thioesterase domain inhibitors, dose response, biochemical, kinetic fluorescence intensity (AID 624326); type: functional;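 also: rate of fluorescence rise from hydrolysis of a fluorogenic O-methyl fluorescein ester substrate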
# [9] = biological target: Large T antigen (Simian virus 40, UniProt P03070); type: functional, Betapolyomavirus macacae;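 also: Confirmatory-stage PubChem screen for compounds that inhibit SV40 T antigen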
# Large T antigen, sequence (P03070 whole entry): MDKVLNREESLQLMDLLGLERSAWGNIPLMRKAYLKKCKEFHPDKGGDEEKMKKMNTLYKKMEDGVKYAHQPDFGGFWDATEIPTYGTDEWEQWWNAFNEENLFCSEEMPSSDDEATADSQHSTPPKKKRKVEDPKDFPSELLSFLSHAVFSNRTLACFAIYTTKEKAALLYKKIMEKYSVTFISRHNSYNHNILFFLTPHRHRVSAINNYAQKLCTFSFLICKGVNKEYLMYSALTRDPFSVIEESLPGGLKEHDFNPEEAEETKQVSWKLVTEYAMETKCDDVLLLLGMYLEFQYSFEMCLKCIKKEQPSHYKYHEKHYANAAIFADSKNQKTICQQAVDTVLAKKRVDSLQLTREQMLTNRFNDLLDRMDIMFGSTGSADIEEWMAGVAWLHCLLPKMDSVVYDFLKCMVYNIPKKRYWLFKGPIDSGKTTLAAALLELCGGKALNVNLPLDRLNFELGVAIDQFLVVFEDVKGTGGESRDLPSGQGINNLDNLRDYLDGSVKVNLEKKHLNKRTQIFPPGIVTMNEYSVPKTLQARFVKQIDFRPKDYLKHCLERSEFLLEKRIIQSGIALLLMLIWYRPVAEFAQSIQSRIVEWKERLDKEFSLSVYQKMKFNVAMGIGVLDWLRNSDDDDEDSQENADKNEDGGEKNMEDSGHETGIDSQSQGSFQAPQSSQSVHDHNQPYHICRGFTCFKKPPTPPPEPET
# [10] = biological target: Nonstructural protein 1 (Influenza A virus, UniProt Q194T2); type: functional, Influenza A virus (A/California/07/2009(H1N1))
# Nonstructural protein 1, sequence (Q194T2 whole entry, the tested form may be a part): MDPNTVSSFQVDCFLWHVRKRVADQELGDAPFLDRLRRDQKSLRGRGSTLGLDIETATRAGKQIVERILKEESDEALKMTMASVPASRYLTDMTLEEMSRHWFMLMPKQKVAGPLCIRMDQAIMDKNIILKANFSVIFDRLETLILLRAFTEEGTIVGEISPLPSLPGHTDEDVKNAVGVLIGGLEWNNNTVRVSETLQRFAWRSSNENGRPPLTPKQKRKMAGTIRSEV
# [11] = inhibitors of HIV Env-driven cell fusion, dose response, cherry-pick (AID 652057); type: functional, cell-based
# [12] = biological target: T4, Heat shock factor protein 1 (Mus musculus, UniProt P38532); assay: HSF1 potentiators in luciferase reporter cells, confirmation, cell-based, NIH3T3, luminescence, dose retest (AID 435004); type: functional;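 also: stress induced by proteasome inhibitor MG132 added 30 min after compound; luciferase reporter driven by HSF1 response element in NIH3T3 cells; actives raise luminescence as potentiators of the MG132 stress response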
# T4 sequence (P38532 whole entry): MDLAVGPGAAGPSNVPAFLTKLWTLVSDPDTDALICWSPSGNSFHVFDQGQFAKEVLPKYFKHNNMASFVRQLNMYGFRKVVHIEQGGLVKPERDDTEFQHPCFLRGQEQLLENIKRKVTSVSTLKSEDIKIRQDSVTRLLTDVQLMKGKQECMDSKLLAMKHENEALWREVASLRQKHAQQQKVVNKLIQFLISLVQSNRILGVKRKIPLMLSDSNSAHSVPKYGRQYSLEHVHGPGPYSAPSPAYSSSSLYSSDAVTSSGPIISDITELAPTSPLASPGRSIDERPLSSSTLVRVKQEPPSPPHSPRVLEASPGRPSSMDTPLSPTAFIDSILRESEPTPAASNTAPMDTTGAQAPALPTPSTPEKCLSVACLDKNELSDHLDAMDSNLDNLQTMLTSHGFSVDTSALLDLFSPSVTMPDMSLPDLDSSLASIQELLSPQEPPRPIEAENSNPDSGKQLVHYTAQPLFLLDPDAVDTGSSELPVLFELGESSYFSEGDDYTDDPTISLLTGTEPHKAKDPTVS
# [13] = inhibitors of clade B AD8 Env fusion, dose response, cell-based, cherry-pick (AID 652062); type: functional;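 also: luciferase signal from cell-cell fusion driven by HIV-1 clade B AD8 Env; potency is for inhibitors of fusion seen as a drop in luminescence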
# [14] = off-target signal loss in HeLa-CEM21 co-culture – HeLa F-luc CTL cells, cherry-picked, counter-screen for HIV-1 Env fusion inhibitor project, dose response (AID 652040); type: functional, cell-based;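 also: potency for signal decrease marking cytotoxic or nonspecific inhibition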
# [15] = ZM109 Env clade C HIV-1 fusion inhibitors, dose response, HeLa effector, CEM target cells, luciferase, cherry-pick (AID 652058); type: functional, cell-based
# [16] = biological target: Genome polyprotein (dengue virus type 2, UniProt P29990); assay: Dengue-2 NS5 methyltransferase inhibitors, primary screen, biochemical, confirmation dose response (AID 588689); type: functional
# Genome polyprotein, sequence (P29990 2492-3391 limits assumed): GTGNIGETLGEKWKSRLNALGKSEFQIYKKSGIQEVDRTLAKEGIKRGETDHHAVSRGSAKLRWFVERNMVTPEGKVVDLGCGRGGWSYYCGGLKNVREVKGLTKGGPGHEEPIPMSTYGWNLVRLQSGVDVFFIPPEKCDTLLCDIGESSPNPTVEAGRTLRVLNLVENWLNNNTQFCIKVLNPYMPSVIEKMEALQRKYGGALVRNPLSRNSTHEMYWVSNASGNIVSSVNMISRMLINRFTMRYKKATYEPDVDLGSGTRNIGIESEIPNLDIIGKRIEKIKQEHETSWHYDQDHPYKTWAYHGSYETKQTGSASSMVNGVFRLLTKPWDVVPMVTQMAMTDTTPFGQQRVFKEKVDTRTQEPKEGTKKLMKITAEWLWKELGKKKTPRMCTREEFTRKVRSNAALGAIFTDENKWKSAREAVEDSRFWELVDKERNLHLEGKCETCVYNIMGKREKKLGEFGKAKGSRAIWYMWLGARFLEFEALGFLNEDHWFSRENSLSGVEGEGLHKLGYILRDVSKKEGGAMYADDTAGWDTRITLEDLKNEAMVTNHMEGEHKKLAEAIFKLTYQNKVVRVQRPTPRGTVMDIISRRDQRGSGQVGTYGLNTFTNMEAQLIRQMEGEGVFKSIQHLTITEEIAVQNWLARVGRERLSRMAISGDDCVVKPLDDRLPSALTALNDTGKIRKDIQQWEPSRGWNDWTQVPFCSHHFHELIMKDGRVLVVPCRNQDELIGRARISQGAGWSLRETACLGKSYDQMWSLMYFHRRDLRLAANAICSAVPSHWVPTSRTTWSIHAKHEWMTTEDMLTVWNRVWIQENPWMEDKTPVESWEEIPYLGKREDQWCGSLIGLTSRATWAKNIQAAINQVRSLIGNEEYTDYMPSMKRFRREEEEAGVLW
structure (smiles),measurement,setting,value
C=CCCCCn1c2ccccc2c2c(C)c3cnccc3c(C)c21,GI50,[1],5.97 µM (inactive)
same,GI50,[2],1.93 µM (inactive)
same,GI50,[3],1.84 µM (inactive)
COc1cc(/C=C2\SC(=O)N(CC(=O)Nc3cccc(C)c3)C2=O)ccc1OC(C)C(=O)O (centres undefined),AC50,[4],0.583 µM (active)
C/C(NNC(=O)c1ccccc1O)=C1/C(=O)NC(=O)N(Cc2ccccc2)C1=O,IC50,[5],19.2 µM (active)
same,AC50,[4],20.4 µM (active)
N#C/C(=N\Nc1ccc([N+](=O)[O-])cc1)C(N)=S,AC50,[4],19.5 µM (active)
C/C=C/c1cc2c(c(=O)o1)C(=O)[C@@H](O)[C@H](C)O2,GI50,[1],17.1 µM (inactive)
same,GI50,[2],2.77 µM (inactive)
same,GI50,[3],2.89 µM (inactive)
Cc1nc(C)c(-c2csc(Nc3ccc(F)cc3)n2)s1,AC50,[6],0.185 µM (active)
CC(=O)c1cccc2c1OC(C)C(=O)N2Cc1ccc(Cl)cc1 (centres undefined),IC50,[7],9.15 µM (active)
same,IC50,[8],5.63 µM (active)
CCN(CC)c1ccc(CN(C(=O)c2cccs2)C2CCS(=O)(=O)C2)cc1 (centres undefined),AC50,[6],2.65 µM (active)
Cc1ccc(S(=O)(=O)c2nnn3c2nc(NCCCN2CCCC2=O)c2ccccc23)cc1C,IC50,[7],5.19 µM (active)
same,IC50,[8],2.85 µM (active)
Cc1ccc(C)c(S(=O)(=O)Nc2ccc(O)cc2)c1,IC50,[9],11.1 µM (active)
O=C(CC(NCc1ccccn1)C(=O)O)Nc1ccccc1Cl (centres undefined),IC50,[10],1.48 µM (active)
COC(=O)NC1C(C)OC(OC2C/C=C(/C)C3C=CC4C(OC5CC(OC6CCC(OC7CC(O)C(OC8CCC(O)C(C)O8)C(C)O7)C(C)O6)C(OC(C)=O)C(C)O5)C(C)CC(C)C4C3(C)/C(O)=C3/C(=O)OC4(CC(C=O)=CC(O)C4/C=C\2C)C3=O)CC1(C)[N+](=O)[O-] (centres undefined),GI50,[1],0.262 µM (active)
same,GI50,[2],0.337 µM (active)
same,GI50,[3],2.64 µM (inactive)
O=c1cccc2n1CC1CC2CN(c2nc(N3CCCCC3)nc(N3CCCCC3)n2)C1 (centres undefined),AC50,[11],1.69 µM (active)
same,EC50,[12],> 260 µM (inactive)
same,AC50,[13],6.73 µM (active)
same,AC50,[14],3.76 µM (active)
same,AC50,[15],1.58 µM (active)
COc1cccc(NC(=O)CN2C(=O)CSc3ccc(S(=O)(=O)N4CCCCC4)cc32)c1,IC50,[7],8.72 µM (active)
same,IC50,[8],9.58 µM (active)
COC(=O)c1ccc(COc2ccccc2/C=N/Nc2cccc(C(=O)O)c2)cc1,IC50,[5],47 µM (active)
same,IC50,[16],76.2 µM (active)
COc1cc2cc(c1Cl)N(C)C(=O)C[C@H](OC(=O)[C@H](C)N(C)C(C)=O)[C@]1(C)O[C@H]1[C@H](C)[C@@H]1C[C@@](O)(NC(=O)O1)[C@H](OC)/C=C/C=C(/C)C2,GI50,[1],0.0262 µM (active)
same,GI50,[2],0.025 µM (active)
same,GI50,[3],0.025 µM (active)
O=C1c2ccccc2C(=O)N1CCc1c[nH]c2ccc(O)cc12,IC50,[9],59.7 µM (active)
Sc1n[nH]c(-c2csc3c2CCCC3)n1,AC50,[6],0.044 µM (active)
Cc1ccc(CN2CCSc3ccc(C(=O)NCCCN4CCN(C)CC4)cc32)cc1,AC50,[6],0.195 µM (active)
C=CC(=O)NC(=N)NC#N,GI50,[1],> 100 µM (inactive)
same,GI50,[2],12.8 µM (inactive)
same,GI50,[3],25.8 µM (inactive)
CCN(c1ccc(NC(=O)CSc2ccc3c(c2)OCCO3)cc1)C(C)C,AC50,[4],20.3 µM (active)
CN(C)c1ccc(NC(=O)CSc2nnc(-c3cnccn3)n2C)cc1,IC50,[9],17.8 µM (active)
CN(CCCNC(=O)C1CCCN(S(=O)(=O)c2c[nH]cn2)C1)c1ccccc1 (centres undefined),AC50,[6],0.085 µM (active)
Cn1cc(/C=N/NC(=O)COc2ccccc2[N+](=O)[O-])c2ccccc21,AC50,[4],> 100 µM (inactive)
CCn1cc(CN2CCC(C(=O)Nc3ccc(Oc4cccnc4)cc3)CC2)c(C)n1,AC50,[4],21.7 µM (active)
C=CC[N+](CCO)(CCO)CCCCCCCCCCCCCCCCCC,GI50,[1],6.08 µM (inactive)
same,GI50,[2],0.486 µM (active)
same,GI50,[3],5.3 µM (inactive)
COc1ccc(C)cc1NC(=O)CSc1ccc(-c2ccccn2)nn1,IC50,[10],9.77 µM (active)
COC(=O)c1ccc(N2CCc3ccccc32)c([N+](=O)[O-])c1,IC50,[10],24 µM (active)
